Reference: patent US8222434B1, “Bactobolin analog and synthesis method thereof” (priority 2009, dated 2012)
Entries after “also recorded” stand apart in the source; their conditions may differ.

What was measured:
BtaR2 [1] = assay type: cell-based, B. thailandensis; details: 3 h
BtaR2 [2] = assay type: cell-based, B. thailandensis
B. thailandensis JBT112 = assay type: cell-based, Burkholderia thailandensis
E. faecalis V583 (VRE) = assay: CLSI microtiter MIC assay; assay type: cell-based, Enterococcus faecalis; details: 24 hours at 35° C., average from two independent experiments
Method: (§1) To test the potency of bactobolins, antibiotic assays were carried out against the human pathogens MRSA, VRE and V. parahaemo-lyticus, and against B. subtilis and E. coli (Table 3-C).
(§2) The minimum inhibitory concentrations (MIC) of each bactobolin was determined according to the 2003 guidelines of the Clinical and Laboratory Standards Institute (CLSI, formerly NCCLS) using the microtiter MIC method. Inocula for each test organism were prepared by suspending a colony from an LB agar plate into Tryptic Soy Broth and growing for 3-5 hours at 35° C. with shaking, then adjusting the culture turbidity in PBS to the equivalent of a 1.0 McFarland Standard (3×10^8 CFU/ml). These cell suspensions were used as inocula for microtiter MIC assays. 2.5 μL inoculum, which corresponded to 1×10^6 cells, was added to a 200 μL well containing each bactobolin diluted in cation-adjusted Mueller-Hinton II broth (actual CFU/ml ranged from 5×104 to 1×106), and these were incubated without shaking for 24 hours at 35° C. The MIC was defined as the lowest concentration of bactobolin (μg/ml) in which bacterial growth in the well was not measurable by determining the turbidity at 595 nm (A595) on a 96-well plate reader. See Table S8 for strains used in these assays.

B. subtilis 3610 = assay: CLSI microtiter MIC assay; assay type: cell-based, Bacillus subtilis; details: 24 hours at 35° C., average from two independent experiments
Method: as §1, §2

E. coli ATCC25922 = assay: CLSI microtiter MIC assay; assay type: cell-based, Escherichia coli; details: 24 hours at 35° C., average from two independent experiments
Method: as §1, §2

[3] = system: B. thailandensis E264 (wt); assay type: cell-based, Burkholderia thailandensis
[4] = system: B. thailandensis ΔbtaI1, I2, I3 (JBT112); assay type: cell-based, Burkholderia thailandensis
[5] = system: B. thailandensis ΔbtaT (BD44); assay type: cell-based, Burkholderia thailandensis
[6] = system: MRSA, VRE and V. parahaemo-lyticus, B. subtilis and E. coli; assay: Antibiotic assays of bactobolins, overall comparison; assay type: cell-based; details: comparison over Table 3-C strains
Method: as §1, §2

S. aureus COL (MRSA) = assay: CLSI microtiter MIC assay; assay type: cell-based, Staphylococcus aureus; details: for Minimum Inhibitory Concentration (MIC): S. aureus COL (MRSA), 24 hours at 35° C., average from two independent experiments
Method: as §1, §2

[7] = system: V. parahaemolyticus LM5674; assay: CLSI microtiter MIC assay; assay type: cell-based, Vibrio parahaemolyticus
Method: as §1, §2

B. subtilis = assay type: cell-based, Bacillus subtilis; details: disc soaked in sterile medium containing 2 μM 3OHC10-HSL; B. subtilis lawn
E. coli = details: relative to bactobolin; cited from earlier work
translation = details: relative to bactobolin; cited from earlier work
tumor = details: relative to bactobolin; cited from earlier work

| Compound | Activation of btaI2-lacZ transcription (BtaR2 [1]) | Restoration of antibiotic production in JBT112 (B. thailandensis JBT112) | Minimum Inhibitory Concentration (MIC) (E. faecalis V583 (VRE)) | Minimum Inhibitory Concentration (MIC) (B. subtilis 3610) | Minimum Inhibitory Concentration (MIC) (E. coli ATCC25922) | Relative potency among bactobolins [6] | Minimum Inhibitory Concentration (MIC) (S. aureus COL (MRSA)) | further results |
| --- | --- | --- | --- | --- | --- | --- | --- | --- |
| CCCCCC(O)CC(=O)N[C@H]1CCOC1=O (stereo partly shown) [Bactobolin 3OHC8-HSL] | Activation | requires exogenous 3OHC8-HSL or 3OHC10-HSL for antibiotic production |  |  |  |  |  | BtaR2-dependent induction of lacZ (1233 promoter) (BtaR2 [2]): sufficient for BtaR2-dependent induction of lacZ |
| Bactobolin B |  |  | 25 mg/L | 0.39 mg/L | 1.56 mg/L | more potent than bactobolins C and D |  | Bactobolin B MIC [3]: >25 mg/L; Bactobolin B MIC [4]: >25 mg/L; Bactobolin B MIC [5]: >25 mg/L |
| C[C@H](N)C(=O)N[C@@H](C)C(=O)N[C@@H]1[C@@H]2C[C@H](O)CC(O)=C2C(=O)O[C@]1(C)C(Cl)Cl [Bactobolin D] |  |  |  | 100 mg/L | >100 mg/L | weakest analog | 37.5 mg/L |  |
| Bactobolin A |  |  | >25 mg/L | 1.56 mg/L | 6.25 mg/L | more potent than bactobolins C and D | 0.78 mg/L |  |
| CCCCCCCC(=O)N[C@H]1CCOC1=O [Bactobolin C8-HSL] | no detectable response | unable to restore antibiotic production |  |  |  |  |  |  |
| C[C@@H](N)C(=O)N[C@@H]1[C@@H]2C[C@H](O)CC(O)=C2C(=O)O[C@]1(C)C(Cl)Cl [Bactobolin C] |  |  | >25 mg/L | 12.5 mg/L | 25 mg/L |  | 6.25 mg/L | Antibiotic effectiveness in words (S. aureus COL (MRSA); MRSA): effective against these strains, though to a lesser extent; Antibiotic effectiveness in words ([7]; V. parahaemolyticus): effective against these strains, though to a lesser extent; Minimum Inhibitory Concentration (MIC) ([7]; V. parahaemolyticus LM5674, 24 hours at 35° C., average from two independent experiments): 1.56 mg/L |
| CCCCCCCC(O)CC(=O)N[C@H]1CCOC1=O (stereo partly shown) [Bactobolin 3OHC10-HSL] | Activation | requires exogenous 3OHC8-HSL or 3OHC10-HSL for antibiotic production |  |  |  |  |  | antibiotic activity of acyl-HSL alone, diffusion disc (B. subtilis): not an antimicrobial molecule; also recorded: does not have antibiotic activity; BtaR2-dependent induction of lacZ (1233 promoter) (BtaR2 [2]): sufficient for BtaR2-dependent induction of lacZ |
| C[C@H](N)C(=O)N[C@@H]1[C@H]2C(=C(O)C[C@@H](O)[C@@H]2O)C(=O)O[C@@H]1C [actinobolin] |  |  |  |  |  |  |  | less active than bactobolin, E. coli kill-assays (E. coli): 21 fold; less active than bactobolin, in vitro inhibition of translation (translation): 1000 fold; less active than bactobolin, murine antitumor activity (tumor): 900 fold |
| CCCCCCCCCC(=O)N[C@H]1CCOC1=O [Bactobolin C10-HSL, N-decanoyl-HSL] | response |  |  |  |  |  |  |  |
| CCCCCCCCCCCC(=O)N[C@H]1CCOC1=O [Bactobolin C12-HSL, N-dodecanoyl-HSL] | response |  |  |  |  |  |  |  |
